# Test results as given in US20210290513A1, “COMPOSITION COMPRISING KAKKALIDE” (LG HOUSEHOLD & HEALTH CARE LTD., priority 2020, published 2021).
# Legend:
# Type in all cases: cell-based
# B-16 mouse melanoma cell = experiment: Total melanin amount in mouse melanoma cell culture (brightening effect); conditions: B16, 72 h, B-16 melanoma cells cultured three days, vs negative control (DMSO), read-out: Inhibition rate (%) of melanin production
# Experimental: In order to evaluate a brightening effect according to inhibition of melanogenesis, an extract was added to a mouse melanoma cell (B-16 mouse melanoma cell) culture, and the total amount of melanin was measured according to a method described in Lotan R. et al. (Cancer Res. 40:3345-3350, 1980). For this experiment, toxicity with respect to the mouse melanoma cells was first evaluated, and the brightening effect was evaluated at a concentration not inducing toxicity. Dimethyl sulfoxide (DMSO) was used as a negative control, and arbutin was used as a positive control.
# Specifically, A compound of Formula 1 was added to a medium of each sample so that the final concentration of the compound of Formula 1 is 1 ppm, 10 ppm, 100 ppm, or 500 ppm, and Daidzein was also added to the medium so that the final concentration of Daidzein is 1 ppm, 10 ppm, 100 ppm, or 500 ppm. Arbutin was added to the medium so that the final concentration was 100 ppm. In each of the mediums, melanoma cells were cultured for three days. Subsequently, the cells were treated with trypsin, detached from the culture plate, and centrifuged, and then melanin was extracted. The detached cells were boiled for 10 minutes by adding 1 ml of a sodium hydroxide solution (1 N concentration) so that melanin was dissolved, and by measuring an absorbance at 400 nm using a spectrophotometer, the amount of melanin production was measured.
# The amount of melanin was measured by a method of indicating absorbance per unit cell count (1×10^6 cells), The amount of melanin production in each experimental group with respect to the negative control was calculated as a relative value, and the value obtained by subtracting the amount of melanin production in each experimental group from 100% of the melanin production amount in the negative control group was expressed as the inhibition rate (%). The experiment was performed three times for each sample, and averages of measurements were obtained.
# [1] = test system: Wnt/β-catenin signaling pathway; experiment: Wnt/β-catenin signaling pathway activation, TOPflash luciferase reporter in human dermal papilla cells; conditions: untreated control = 100
# Experimental: The effect of the compound of Chemical Formula 1 on the activation of the Wnt/β-catenin signaling pathway was investigated using TOPflash (T-cell factor reporter plasmid) Kit (Millipore, USA). Human dermal papilla cells were inoculated into a 24-well plate at 2×10^5/well, cultured for 24 hours, treated with the compound of Chemical Formula 1 so that the concentration was 10 μg/ml, and then additionally cultured for 15 hours, and firefly luciferase activity was subsequently measured using a dual luciferase assay kit (Promega, USA).
# In order to accurately measure the luciferase activity, the experiment was performed three times for each sample, an increase rate (%) was calculated as a ratio of activity relative to that of a control was calculated, and the results are shown in Table 5. The negative control was an untreated group. As a positive control, 6-bromoindirubin-3′-oxime (BIO) was used, and BIO is a material known to inhibit GSK-3 in the Wnt signaling system.
# [2] = test system: type I collagen synthesis in human-derived fibroblasts; experiment: Type I collagen synthesis in human-derived fibroblasts (PICP EIA kit); conditions: for Increase rate (%) of collagen synthesis: relative to negative control; for Amount of type I collagen production: negative control 151.4
# Experimental: A sample was added to a human-derived fibroblast culture medium to evaluate the effect of promoting type I collagen synthesis at the cellular level. The synthesized collagen was quantified using a Procollagen Type I C-Peptide Enzyme Immunoassay kit (PICP EIA kit). In order to measure the amount of collagen synthesis, a compound of Formula 1 was added to the fibroblast culture medium (Dulbecco's Modified Eagle Medium (DMEM)) so that the final concentration of compound of Formula 1 was 0.1 ppm, 1 ppm, or 10 ppm in each medium, and Genistein was also added to the fibroblast culture medium (Dulbecco's Modified Eagle Medium (DMEM)) so that final concentration of Genistein was 0.1 ppm, 1 ppm, or 10 ppm. After culturing for 48 hours, and then the culture medium was taken, and, by using the PICP EIA kit, the degree of type I collagen synthesis at each concentration was measured at 450 nm using a spectrophotometer. In order to compare the effect, the culture medium of fibroblasts without sample treatment was used as a negative control, and 10 ng/ml TGF-β was used as a positive control, and the degrees of collagen synthesis therein were measured in the same manner as for testing an added sample. A rate of increase in collagen synthesis was calculated as a ratio of the amount of collagen production relative to that of the negative control, and the results are shown in Table 2. The experiment was performed three times for each sample, and averages of measurements were obtained.
# HAS2 = HAS2 mRNA expression in human keratinocytes (real-time quantitative PCR); conditions: HaCaT, negative control normalized to 1.0
# Experimental: (§1) Human keratinocytes (HaCaT) were dispensed into a 6-well cell culture plate at 2×10^5 cells/well and cultured for 24 hours in a DMEM medium containing 10% fetal bovine serum (FBS). The medium was replaced with a DMEM medium without 10% FBS and calcium (Ca^2+), and the cultured cells were treated with the compound of Chemical Formula 1, which had been diluted with a medium, for 24 hours. After the 24 hours had passed, the cells were recovered and then washed with a cold phosphate buffer solution (PBS), and total RNA was extracted using an RNeasy mini kit (Qiagen, Germany). A reverse transcription reaction was performed using RNA and a cDNA Synthesis kit (PhileKorea, Korea). The synthesized cDNA was diluted with water after being quantified, and the same amount thereof was used for all reactions. HAS2, HAS3, and AQP3 primers from a TaqMan® Universal Master Mix II and TaqMan® Gene Expression Assays (Thermo Fisher, USA) were used. Real-time quantitative polymerase chain reaction (PCR) was carried out using a StepOnePlus® Real-time PCR System (Applied Biosystems, USA). The experimental results were obtained through calculation performed by a ΔΔCt method based on a housekeeping gene glyceraldehyde-3-phosphate dehydrogenase (GAPDH). The levels of HAS2, HAS3, and AQP3 gene expression in each sample were quantified based on the mRNA expression level (normalized to 1.0) of the negative control to which the sample was not added, and the results are shown in Table 3. As a positive control, 10 ng/ml EGF recombinant human protein (Life Technologies, USA) was used.
# HAS3 = HAS3 mRNA expression in human keratinocytes (real-time quantitative PCR); conditions: HaCaT, negative control normalized to 1.0
# Experimental: as §1
# AQP3 = AQP3 mRNA expression in human keratinocytes (real-time quantitative PCR); conditions: HaCaT, negative control normalized to 1.0
# Experimental: as §1
# A. niger = experiment: Minimum inhibitory concentration, serial dilution method; conditions: PDB medium, about 10^6/well
# Experimental: (§2) This experiment was carried out by a serial dilution method and a method of measuring a minimum inhibitory concentration (MIC), using an MHB2 medium (for bacteria) or a PDB medium (for fungi). The bacteria or fungi were inoculated at about 10^6/well.
# C. albicans = experiment: as above; conditions: PDB medium, about 10^6/well
# Experimental: as §2
# E. coli = experiment: as above; conditions: MHB2 medium, about 10^6/well
# Experimental: as §2
# P. aeruginosa = experiment: as above; conditions: MHB2 medium, about 10^6/well
# Experimental: as §2
# Pityrosporum ovale = experiment: as above; conditions: about 10^6/well
# Experimental: as §2
# S. aureus = experiment: as above; conditions: MHB2 medium, about 10^6/well
# Experimental: as §2
# dermal papilla cells = experiment: Dermal papilla cell proliferation (CCK-8); conditions: 100 ppm, CCK-8 on day 5, Control (DMEM) = 1.00
# Experimental: This experiment was performed using the following media 1) to 3):
# 1) DMEM (10% FBS, 1% P/S)
# 2) Depletion medium: 5% charcoal-stripped, FBS-containing, phenol red-free DMEM
# 3) Serum-free (SF) medium: DMEM (1% P/S).
# On days 0 to 5, the following various experiments were performed to confirm a dermal papilla cell proliferation effect.
# Day 0: At 10 a.m., cells were seeded (5,000 cells/well)
# Day 1: At 10 a.m., after changing the depletion medium, cells were cultured for 24 hours.
# Day 2: At 10 a.m., CCK-8 was measured (average initial value: 0.586) before the cells were treated with a sample, and subsequently, cells were treated with a sample.
molecule,measurement,setting,value
"OC[C@H]1O[C@@H](Oc2ccc(O)cc2)[C@H](O)[C@@H](O)[C@@H]1O [Arbutin, arbutin]",inhibition at 100 ppm,B-16 mouse melanoma cell,56%
"O=C1Nc2cc(Br)ccc2/C1=C1/Nc2ccccc2/C1=N\O [BIO, 6-bromoindirubin-3′-oxime]",Increase rate (%) of luciferase activity,"[1]; 1 μM, positive control",153%
"COc1ccc(-c2coc3cc(O[C@@H]4O[C@H](CO[C@@H]5OC[C@@H](O)[C@H](O)[C@H]5O)[C@@H](O)[C@H](O)[C@H]4O)c(OC)c(O)c3c2=O)cc1 [Chemical Formula 1, kakkalide]",inhibition at 1 ppm,B-16 mouse melanoma cell,35.3%
same,inhibition at 10 ppm,B-16 mouse melanoma cell,48%
same,inhibition at 100 ppm,B-16 mouse melanoma cell,57.6%
same,inhibition at 500 ppm,B-16 mouse melanoma cell,68.4%
same,Increase rate (%) of collagen synthesis,"[2]; 0.1 ppm, 48 hours",4.19%
same,Amount of type I collagen production,"[2]; 0.1 ppm, 48 hours",157.74 ng/mL
same,Increase rate (%) of collagen synthesis,"[2]; 1 ppm, 48 hours",12.56%
same,Amount of type I collagen production,"[2]; 1 ppm, 48 hours",170.41 ng/mL
same,Increase rate (%) of collagen synthesis,"[2]; 10 ppm, 48 hours",16.07%
same,Amount of type I collagen production,"[2]; 10 ppm, 48 hours",175.72 ng/mL
same,Increased HAS2 mRNA amount,"HAS2; 10 ppm, 24 hours",2.28
same,Increased HAS2 mRNA amount,"HAS2; 100 ppm, 24 hours",6.64
same,Increased HAS3 mRNA amount,"HAS3; 10 ppm, 24 hours",3.97
same,Increased HAS3 mRNA amount,"HAS3; 100 ppm, 24 hours",5.23
same,Increased AQP3 mRNA amount,"AQP3; 10 ppm, 24 hours",1.75
same,Increased AQP3 mRNA amount,"AQP3; 100 ppm, 24 hours",4.17
same,Minimum inhibitory concentration (%) A. niger,A. niger,0.1%
same,Minimum inhibitory concentration (%) C. albicans,C. albicans,0.05%
same,Minimum inhibitory concentration (%) E. coli,E. coli,0.05%
same,Minimum inhibitory concentration (%) P. aeruginosa,P. aeruginosa,0.05%
same,Minimum inhibitory concentration (%) Pityrosporum ovale,Pityrosporum ovale,0.0003%
same,Minimum inhibitory concentration (%) S. aureus,S. aureus,0.01%
same,Increase rate (%) of luciferase activity,"[1]; 10 μg/ml, 15 hours",160%
same,Average (ratio) dermal papilla cell proliferation,dermal papilla cells,1.34
O=c1c(-c2ccc(O)cc2)coc2cc(O)ccc12 [Daidzein],inhibition at 1 ppm,B-16 mouse melanoma cell,18.7%
same,inhibition at 10 ppm,B-16 mouse melanoma cell,16.4%
same,inhibition at 100 ppm,B-16 mouse melanoma cell,20.8%
same,inhibition at 500 ppm,B-16 mouse melanoma cell,30.2%
O=c1c(-c2ccc(O)cc2)coc2cc(O)cc(O)c12 [Genistein],Increase rate (%) of collagen synthesis,"[2]; 0.1 ppm, 48 hours",2.53%
same,Amount of type I collagen production,"[2]; 0.1 ppm, 48 hours",155.24 ng/mL
same,Increase rate (%) of collagen synthesis,"[2]; 1 ppm, 48 hours",4.85%
same,Amount of type I collagen production,"[2]; 1 ppm, 48 hours",158.75 ng/mL
same,Increase rate (%) of collagen synthesis,"[2]; 10 ppm, 48 hours",8.59%
same,Amount of type I collagen production,"[2]; 10 ppm, 48 hours",165.93 ng/mL
same,Increased HAS2 mRNA amount,"HAS2; 10 ppm, 24 hours",1.06
same,Increased HAS2 mRNA amount,"HAS2; 100 ppm, 24 hours",2.74
same,Increased HAS3 mRNA amount,"HAS3; 10 ppm, 24 hours",2.86
same,Increased HAS3 mRNA amount,"HAS3; 100 ppm, 24 hours",3.34
same,Increased AQP3 mRNA amount,"AQP3; 10 ppm, 24 hours",1.09
same,Increased AQP3 mRNA amount,"AQP3; 100 ppm, 24 hours",2.47
same,Minimum inhibitory concentration (%) A. niger,A. niger,0.2%
same,Minimum inhibitory concentration (%) C. albicans,C. albicans,0.08%
same,Minimum inhibitory concentration (%) E. coli,E. coli,0.1%
same,Minimum inhibitory concentration (%) P. aeruginosa,P. aeruginosa,0.07%
same,Minimum inhibitory concentration (%) Pityrosporum ovale,Pityrosporum ovale,0.0005%
same,Minimum inhibitory concentration (%) S. aureus,S. aureus,0.03%
same,Increase rate (%) of luciferase activity,"[1]; 10 μg/ml, 15 hours",140%
same,Average (ratio) dermal papilla cell proliferation,dermal papilla cells,1.10
"EGF: EGF recombinant human protein (Life Technologies, USA), positive control",Increased HAS2 mRNA amount,"HAS2; 10 ng/ml, positive control",16.42
same,Increased HAS3 mRNA amount,"HAS3; 10 ng/ml, positive control",5.24
same,Increased AQP3 mRNA amount,"AQP3; 10 ng/ml, positive control",1.09
TGF-β,Increase rate (%) of collagen synthesis,"[2]; 10 ng/ml, positive control",13.84%
same,Amount of type I collagen production,"[2]; 10 ng/ml, positive control",172.35 ng/mL
zinc pyrithione,Minimum inhibitory concentration (%) A. niger,A. niger,0.02%
same,Minimum inhibitory concentration (%) C. albicans,C. albicans,0.02%
same,Minimum inhibitory concentration (%) E. coli,E. coli,0.002%
same,Minimum inhibitory concentration (%) P. aeruginosa,P. aeruginosa,0.002%
same,Minimum inhibitory concentration (%) Pityrosporum ovale,Pityrosporum ovale,0.0002%
same,Minimum inhibitory concentration (%) S. aureus,S. aureus,0.001%
